# Test results taken from patent US20250171438A1 (Agios Pharmaceuticals, Inc., priority 2022, published 2025).
# Molecular target: T1, human PAH with the R408W mutation (Homo sapiens, UniProt P00439, R408W)
# T1 construct: expressed in transfected cells
# T1 sequence (P00439 1-452 R408W): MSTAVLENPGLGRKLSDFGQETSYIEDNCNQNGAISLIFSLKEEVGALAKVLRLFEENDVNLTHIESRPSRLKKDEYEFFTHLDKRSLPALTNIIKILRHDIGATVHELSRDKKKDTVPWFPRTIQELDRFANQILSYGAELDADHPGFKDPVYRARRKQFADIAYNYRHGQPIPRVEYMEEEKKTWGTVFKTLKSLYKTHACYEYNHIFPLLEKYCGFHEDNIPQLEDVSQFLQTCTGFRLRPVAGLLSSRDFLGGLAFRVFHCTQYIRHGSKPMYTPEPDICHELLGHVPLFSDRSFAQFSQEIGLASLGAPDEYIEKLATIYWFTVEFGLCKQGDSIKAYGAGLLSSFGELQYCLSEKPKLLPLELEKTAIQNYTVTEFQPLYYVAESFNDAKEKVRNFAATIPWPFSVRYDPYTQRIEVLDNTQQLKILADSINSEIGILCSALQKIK
# Experiment: Cell Based Phenylalanine Flux Assay
# Details: A375 cells expressing human R408W PAH; 24 hrs compound incubation; 13C-Tyrosine by LC-MS; average where tested multiple times; read-out: AC50
row,AC50 [µM],Compound
1,< 0.5,"O=C(c1ocnc1C1CC1)N1CC2(CC2)c2[nH]cnc2[C@H]1c1nc2ccccc2s1 [Example 1669, (S)-(4′-(benzo[d]thiazol-2-yl)spiro[cyclopropane-1,7′-imidazo[4,5-c]pyridin]-5′(1′H,4′H,6′H)-yl)(4-cyclopropyloxazol-5-yl)methanone]"
2,1 to 5,"O=C(c1ocnc1C1CC1)N1CC2(CC2)c2[nH]cnc2[C@@H]1c1nc2ccccc2s1 [Example 1670, (R)-(4′-(benzo[d]thiazol-2-yl)spiro[cyclopropane-1,7′-imidazo[4,5-c]pyridin]-5′(1′H,4′H,6′H)-yl)(4-cyclopropyloxazol-5-yl)methanone]"
3,0.5 to 1,Cc1nc(CCCN2CC(F)C2)oc1C(=O)N1CCc2[nH]cnc2[C@H]1c1nc2ccccc2s1 [Example 1671]
4,> 5,"Cc1nc(CCCN2CC(F)C2)oc1C(=O)N1CCc2[nH]cnc2[C@@H]1c1nc2ccccc2s1 [Example 1672, (R)-(4-(benzo[d]thiazol-2-yl)-6,7-dihydro-1H-imidazo[4,5-c]pyridin-5(4H)-yl)(2-(3-(3-fluoroazetidin-1-yl)propyl)-4-methyloxazol-5-yl)methanone]"
5,> 5,"N#Cc1nc(OCCC(F)(F)F)oc1C(=O)N1CCc2[nH]cnc2[C@@H]1c1nc2ccccc2s1 [Example 1673, (R)-5-(4-(benzo[d]thiazol-2-yl)-4,5,6,7-tetrahydro-1H-imidazo[4,5-c]pyridine-5-carbonyl)-2-(3,3,3-trifluoropropoxy)oxazole-4-carbonitrile]"
6,0.5 to 1,"N#Cc1nc(OCCC(F)(F)F)oc1C(=O)N1CCc2[nH]cnc2[C@H]1c1nc2ccccc2s1 [Example 1674, (S)-5-(4-(benzo[d]thiazol-2-yl)-4,5,6,7-tetrahydro-1H-imidazo[4,5-c]pyridine-5-carbonyl)-2-(3,3,3-trifluoropropoxy)oxazole-4-carbonitrile]"
7,< 0.5,CN(C)CCc1nc(C(F)(F)F)c(C(=O)N2CCc3[nH]cnc3[C@H]2c2nc3c(F)cccc3s2)o1 [Example 1675]
8,< 0.5,"CN(C)CCc1nc(C(F)(F)F)c(C(=O)N2CCc3[nH]cnc3[C@@H]2c2nc3c(F)cccc3s2)o1 [Example 1676, (R)-(2-(2-(dimethylamino)ethyl)-4-(trifluoromethyl)oxazol-5-yl)(4-(4-fluorobenzo[d]thiazol-2-yl)-6,7-dihydro-1H-imidazo[4,5-c]pyridin-5(4H)-yl)methanone]"
9,0.5 to 1,"CC(C)(O)c1ncc(C(=O)N2CC3(CC3)c3[nH]cnc3[C@H]2c2nc3ccccc3s2)o1 [Example 1677, (S)-(4′-(benzo[d]thiazol-2-yl)spiro[cyclopropane-1,7′-imidazo[4,5-c]pyridin]-5′(1′H,4′H,6′H)-yl)(2-(2-hydroxypropan-2-yl)oxazol-5-yl)methanone]"
10,1 to 5,"CC(C)(O)c1ncc(C(=O)N2CC3(CC3)c3[nH]cnc3[C@@H]2c2nc3ccccc3s2)o1 [Example 1678, (R)-(4′-(benzo[d]thiazol-2-yl)spiro[cyclopropane-1,7′-imidazo[4,5-c]pyridin]-5′(1′H,4′H,6′H)-yl)(2-(2-hydroxypropan-2-yl)oxazol-5-yl)methanone]"
11,0.5 to 1,"CC(C)(O)c1nc(C(F)(F)F)c(C(=O)N2CC3(CC3)c3[nH]cnc3[C@H]2c2nc3ccccc3s2)o1 [Example 1679, (S)-(4′-(benzo[d]thiazol-2-yl)spiro[cyclopropane-1,7′-imidazo[4,5-c]pyridin]-5′(1′H,4′H,6′H)-yl)(2-(2-hydroxypropan-2-yl)-4-(trifluoromethyl)oxazol-5-yl)methanone]"
12,1 to 5,"CC(C)(O)c1nc(C(F)(F)F)c(C(=O)N2CC3(CC3)c3[nH]cnc3[C@@H]2c2nc3ccccc3s2)o1 [Example 1680, (R)-(4′-(benzo[d]thiazol-2-yl)spiro[cyclopropane-1,7′-imidazo[4,5-c]pyridin]-5′(1′H,4′H,6′H)-yl)(2-(2-hydroxypropan-2-yl)-4-(trifluoromethyl)oxazol-5-yl)methanone]"
13,0.5 to 1,"O=C(c1oc(-c2ccccn2)nc1C(F)(F)F)N1CC2(CC2)c2[nH]cnc2[C@H]1c1nc2ccccc2s1 [Example 1681, (S)-(4′-(benzo[d]thiazol-2-yl)spiro[cyclopropane-1,7′-imidazo[4,5-c]pyridin]-5′(1′H,4′H,6′H)-yl)(2-(pyridin-2-yl)-4-(trifluoromethyl)oxazol-5-yl)methanone]"
14,1 to 5,"O=C(c1oc(-c2ccccn2)nc1C(F)(F)F)N1CC2(CC2)c2[nH]cnc2[C@@H]1c1nc2ccccc2s1 [Example 1682, (R)-(4′-(benzo[d]thiazol-2-yl)spiro[cyclopropane-1,7′-imidazo[4,5-c]pyridin]-5′(1′H,4′H,6′H)-yl)(2-(pyridin-2-yl)-4-(trifluoromethyl)oxazol-5-yl)methanone]"
15,1 to 5,"O=C(c1nnc(-c2ccccn2)o1)N1CC2(CC2)c2[nH]cnc2[C@@H]1c1nc2ccccc2s1 [Example 1683, (R)-(4′-(benzo[d]thiazol-2-yl)spiro[cyclopropane-1,7′-imidazo[4,5-c]pyridin]-5′(1′H,4′H,6′H)-yl)(5-(pyridin-2-yl)-1,3,4-oxadiazol-2-yl)methanone]"
16,< 0.5,"O=C(c1nnc(-c2ccccn2)o1)N1CC2(CC2)c2[nH]cnc2[C@H]1c1nc2ccccc2s1 [Example 1684, (S)-(4′-(benzo[d]thiazol-2-yl)spiro[cyclopropane-1,7′-imidazo[4,5-c]pyridin]-5′(1′H,4′H,6′H)-yl)(5-(pyridin-2-yl)-1,3,4-oxadiazol-2-yl)methanone]"
17,1 to 5,"Cc1nnc(C(=O)N2CC3(CC3)c3[nH]cnc3[C@@H]2c2nc3ccccc3s2)o1 [Example 1685, (R)-(4′-(benzo[d]thiazol-2-yl)spiro[cyclopropane-1,7′-imidazo[4,5-c]pyridin]-5′(1′H,4′H,6′H)-yl)(5-methyl-1,3,4-oxadiazol-2-yl)methanone]"
18,0.5 to 1,"Cc1nnc(C(=O)N2CC3(CC3)c3[nH]cnc3[C@H]2c2nc3ccccc3s2)o1 [Example 1686, (S)-(4′-(benzo[d]thiazol-2-yl)spiro[cyclopropane-1,7′-imidazo[4,5-c]pyridin]-5′(1′H,4′H,6′H)-yl)(5-methyl-1,3,4-oxadiazol-2-yl)methanone]"
19,< 0.5,O=C(N1CCc2[nH]cnc2[C@H]1c1nc2ccccc2s1)C(F)(F)C1(O)CCC1 [Example 1687]
20,1 to 5,"O=C(N1CCc2[nH]cnc2[C@@H]1c1nc2ccccc2s1)C(F)(F)C1(O)CCC1 [Example 1688, (R)-1-(4-(benzo[d]thiazol-2-yl)-6,7-dihydro-1H-imidazo[4,5-c]pyridin-5(4H)-yl)-2,2-difluoro-2-(1-hydroxycyclobutyl)ethanone]"
21,< 0.5,O=C(N1CC(F)C1)N1CCc2[nH]cnc2[C@H]1c1nc2ccccc2s1 [Example 1689]
22,1 to 5,"O=C(N1CC(F)C1)N1CCc2[nH]cnc2[C@@H]1c1nc2ccccc2s1 [Example 1690, (R)-(4-(benzo[d]thiazol-2-yl)-6,7-dihydro-1H-imidazo[4,5-c]pyridin-5(4H)-yl)(3-fluoroazetidin-1-yl)methanone]"
23,< 0.5,"O=C(N1CCC1)N1CCc2[nH]cnc2[C@H]1c1nc2ccccc2s1 [Example 1691, (S)-azetidin-1-yl(4-(benzo[d]thiazol-2-yl)-6,7-dihydro-1H-imidazo[4,5-c]pyridin-5(4H)-yl)methanone]"
24,1 to 5,"O=C(N1CCC1)N1CCc2[nH]cnc2[C@@H]1c1nc2ccccc2s1 [Example 1692, (R)-azetidin-1-yl(4-(benzo[d]thiazol-2-yl)-6,7-dihydro-1H-imidazo[4,5-c]pyridin-5(4H)-yl)methanone]"
25,0.5 to 1,Cc1nc(CN(C)C)oc1C(=O)N1CCc2[nH]cnc2[C@H]1c1nc2ccccc2s1 [Example 1693]
26,> 5,"Cc1nc(CN(C)C)oc1C(=O)N1CCc2[nH]cnc2[C@@H]1c1nc2ccccc2s1 [Example 1694, (R)-(4-(benzo[d]thiazol-2-yl)-6,7-dihydro-1H-imidazo[4,5-c]pyridin-5(4H)-yl)(2-((dimethylamino)methyl)-4-methyloxazol-5-yl)methanone]"
27,> 5,"CC(C)(O)c1nnc(C(=O)N2CC3(CC3)c3[nH]cnc3[C@@H]2c2nc3ccccc3s2)o1 [Example 1695, (R)-(4′-(benzo[d]thiazol-2-yl)spiro[cyclopropane-1,7′-imidazo[4,5-c]pyridin]-5′(1′H,4′H,6′H)-yl)(5-(2-hydroxypropan-2-yl)-1,3,4-oxadiazol-2-yl)methanone]"
28,0.5 to 1,"CC(C)(O)c1nnc(C(=O)N2CC3(CC3)c3[nH]cnc3[C@H]2c2nc3ccccc3s2)o1 [Example 1696, (S)-(4′-(benzo[d]thiazol-2-yl)spiro[cyclopropane-1,7′-imidazo[4,5-c]pyridin]-5′(1′H,4′H,6′H)-yl)(5-(2-hydroxypropan-2-yl)-1,3,4-oxadiazol-2-yl)methanone]"
29,0.5 to 1,"CC(C)(O)c1nc(C#N)c(C(=O)N2CCc3[nH]cnc3[C@H]2c2nc3ccccc3s2)o1 [Example 1697, (S)-5-(4-(benzo[d]thiazol-2-yl)-4,5,6,7-tetrahydro-1H-imidazo[4,5-c]pyridine-5-carbonyl)-2-(2-hydroxypropan-2-yl)oxazole-4-carbonitrile]"
30,> 5,"CC(C)(O)c1nc(C#N)c(C(=O)N2CCc3[nH]cnc3[C@@H]2c2nc3ccccc3s2)o1 [Example 1698, (R)-5-(4-(benzo[d]thiazol-2-yl)-4,5,6,7-tetrahydro-1H-imidazo[4,5-c]pyridine-5-carbonyl)-2-(2-hydroxypropan-2-yl)oxazole-4-carbonitrile]"
